Data: patent US6803475B2, “Fluorous tagging compounds and methods of use thereof” (University of Pittsburgh, priority 2000, dated 2004)

Key:
Type in all cases: physicochemical
[1] = Stability of fluorous alkoxysilyl ethers in CH2Cl2/trifluoroacetic acid (5%), remaining ether analysed by LC-MS; conditions: aliquots quenched with MeOH/pyridine (20:1)
Procedure: Fluorous alkoxysilyl ethers (34a,b, 37a) were each dissolved in a mixture of CH2Cl2/trifluoroacetic acid (5%), and aliquots of these solutions were quenched with MeOH/pyridine (20:1). The quenched reaction mixtures were analyzed for remaining 34a,b and 37a by LC-MS (Liquid chromatography-mass spectrometry). Reactions and quenching were performed on a HP 7868 solution phase synthesizer. Analysis of quenched samples was done with a HP 1100 series LC/MS. Samples eluted were compared with unreacted control samples. (Rt [min]: 2.6 (34a), 2.9 (34b), 2.3 (37a); Novapak C18, 3.9×150 mm, 1.2 mL/min, MeOH as eluent).
(§1) The stability of these alkoxysilyl ethers appeared to be determined by the steric bulk around the silicon atom. While 34a was not very stable (t1/2˜6 min) under the acidic reaction conditions, 34b (t1/2˜4 h) was moderately stable, and the tert-butyl-phenyl-1H,1H,2H,2H-heptadecafluorodecyloxysilyl ether 37a (t1/2>>6 h) was very stable. […] As a result of the enhanced electrophilicity of the silicon atom in bis-alkoxysilyl ethers, the latter are generally more labile toward nucleophiles and bases than either the TBDPS or the tert-butyldimethylsilyl (TBDMS) groups. […] In contrast, the stability under protic acidic conditions in 5% p-TsOH/MeOH (t1/2˜40 min) is more limited.
Reactions and quenching were performed on a HP 7868 solution phase synthesizer. […]

[2] = Stability in THF-d8 / 0.25 M NaOD (3:1), determined by 1H NMR; conditions: THF-d8 and 0.25 M NaOD (3:1)
Procedure: as §1

[3] = Stability under protic acidic conditions in 5% p-TsOH/MeOH
Procedure: as §1

- t1/2 under the acidic reaction conditions [1]: > 6 h
- t1/2 in mildly basic aqueous medium [2]: 48 h
- t1/2 under protic acidic conditions [3]: ~0.667 h
Compound: CC(C)(C)[Si](OCCC(F)(F)C(F)(F)C(F)(F)C(F)(F)C(F)(F)C(F)(F)C(F)(F)C(F)(F)F)(OC1CCCCC1)c1ccccc1 (stereo not drawn) [37a, tert-butyl-phenyl-1H,1H,2H,2H-heptadecafluorodecyloxysilyl ether]
